Test results reported in patent US20140248212A1, “NON-IMMUNOGENIC POSITRON EMISSION TOMOGRAPHY REPORTER GENE SYSTEMS” (THE REGENTS OF THE UNIVERSITY OF CALIFORNIA, priority 2011, published 2014).
Residue numbers refer to the chain shown, from its start. Names may count otherwise. Blank lines part the entries; values can stand above or below the molecule they belong to.

Columns and labels:
TK2-N93D/L109F = target: T1, TK2-N93D/L109F (Homo sapiens, UniProt O00142, L109F/N93D); assay: Kinetic analyses of recombinant TK2 (NADH-dependent enzyme coupled assay), TK2-N93D/L109F; assay type: biochemical
T1 construct: hexahistidine (N, cleaved yes); SUMO (N, cleaved yes); made in house; host or cells: Escherichia coli BL21 (DE3) C41, modified pET14b
T1 sequence (O00142 51-265 N93D/L109F): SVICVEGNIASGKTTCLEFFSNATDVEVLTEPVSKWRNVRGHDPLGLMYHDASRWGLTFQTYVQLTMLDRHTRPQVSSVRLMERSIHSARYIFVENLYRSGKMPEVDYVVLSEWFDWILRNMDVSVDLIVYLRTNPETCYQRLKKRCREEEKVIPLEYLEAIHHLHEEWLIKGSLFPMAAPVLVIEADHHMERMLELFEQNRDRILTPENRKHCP
Procedure: FIG. 34 provides a table that illustrates the kinetics of the phosphorylation of D and L-nucleosides by the TK2 mutants. Kinase assays were performed with recombinant protein with 200 μM of the listed substrate.

TK2-N93D = target: T2, TK2-N93D (Homo sapiens, UniProt O00142, N93D); assay: Kinetic analyses of recombinant TK2 (NADH-dependent enzyme coupled assay), TK2-N93D; conditions: 37° C., 1 mM ATP
T2 sequence (O00142 51-265 N93D): T1 sequence (O00142 51-265 N93D/L109F) with F59L
Procedure: (§1) A NADH-dependent enzyme coupled assay (see, e.g. Agarwal, K. C., et al. (1978) Methods Enzymol. 51, 483-490) was used. Using a Cary UV spectrophotometer, measurements were made in triplicate at 37° C. in a buffer containing 100 mM Tris, pH 7.5, 100 mM KCl, 5 mM MgCl2, and 1 mM ATP. For data in which kobs is given, a single nucleoside concentration of 200 μM was used. For data in which both Km and kcat are given, the nucleoside concentration was varied between 15 and 500 μM. TK2 concentration in the cuvette was 400 nM. Data were fit to the Michaelis-Menten equation using SigmaPlot. […] Therefore, all of the kinetic data using the Michaelis-Menten equation without the Hill coefficient is presented.

TK2-L109F = target: T3, TK2-L109F (Homo sapiens, UniProt O00142, L109F); assay: Kinetic analyses of recombinant TK2 (NADH-dependent enzyme coupled assay), TK2-L109F; conditions: 37° C., 1 mM ATP
T3 sequence (O00142 51-265 L109F): T1 sequence (O00142 51-265 N93D/L109F) with D43N
Procedure: as §1

[1] = Biodistribution of PET reporter probes in mice (microPET/CT); assay type: in vivo, C57/BL6 mice; conditions: for biodistribution in mice: C57/BL6 mice, FIG. 25B, no retention in normal tissues except clearance routes (GI tract, bladder)
Procedure: To identify candidate PRPs, eight nucleoside analogs (FIG. 7A) were synthesized that were amenable to ^18F labeling (the first criterion for PRPs). To identify PRP candidates with rapid clearance from normal tissues and low overall background (second criterion for PRGs), biodistribution studies in mice were performed. It was observed that natural (D) nucleosides had higher background than non-natural (L) nucleoside analogs. […] The next step was to identify a human nucleoside kinase that phosphorylates L-[^18F]FMAU and L-[^18F]FEAU, and can be converted into a new PRG that matches four criteria:
Initially, a group of nucleoside analogs amenable to fluorine-18 labeling were identified. These PET tracers, 5 of which were novel, were then screened to determine their biodistribution in C57/BL6 mice (n=3 for each PET tracer) through dynamic microPET scans. […] Rational design is utilized to introduce mutations into human nucleoside kinase thymidine kinase 2 (TK2) to improve the affinity of the kinase for the top candidate probe. The sensitivity and specificity of the novel PET reporter probe/gene pair was then determined in vitro and in vivo using a murine cancer model.
Animal studies were approved and carried out according to specific guidelines. C57/BL6 mice were injected with the indicated probe and underwent micro-PET/CT analyses at 1- and 3-h post probe injection (Inveon, Siemens Medical Solutions USA Inc.; microCAT; Imtek Inc.). For tumor imaging studies, SCID mice were injected subcutaneously on day −7 in the right and left flanks with 1×10^6 L1210-PRG-expressing cells in 50% v/v phosphate-buffered saline and 50% v/v Matrigel™ (BD Biosciences). For imaging experiments, mice were kept warm and under gas anesthesia (2% v/v isoflurane) and were injected intravenously with 200 μCi of ^18F-labeled probes. A 3-h interval was allowed between probe administration and microPET/CT scanning Static microPET images were acquired for 600 s. Image data were evaluated in three-dimensional histograms and reconstructed with a zoom factor of 2.1 using three-dimensional ordered set expectation maximization (OSEM) with 2 iterations followed by MAP (maximum a posteriori) reconstruction with 18 iterations (beta=0.1). Images were analyzed using OsiriX Imaging Software Version 3.8.

Baf-3 cells = assay: Test of mutant htk2 reporter genes in Baf-3 cells; assay type: cell-based
Text: The sensitivity of the described mutant htk2 imaging reporter genes can be evaluated through cell culture assays and PET imaging in mouse tumor models. […] Further tests regarding the effect of expressing these reporter genes on various cells can be used to determine other potential targets. […] Several enhanced htk2 mutant reporter genes have been designed and tested. Though the examples herein describe different probes and investigate the L probes mainly in mice, other mammals and in particular, humans are also within the scope of the invention. Silico models can be used to derive additional enhanced mutants from human htk2.

TK1 = assay: [3H]dT uptake inhibition assay (competition with thymidine for TK1); assay type: cell-based
Text: FIG. 6 provides a graph that illustrates data regarding an assay to determine whether candidate probes compete with thymidine for TK1.
Further evaluations can be carried out to precisely assess the affinity of these candidate probes for purified recombinant TK1.

[2] = Microsomal stability (glucuronidation conditions); assay type: in vitro ADME; conditions: glucuronidation conditions (data not shown)
Text: Regarding condition (d), one has obtained the microsomal stability profiles for 3 out of 4 compounds (FCU, FBU and FddUrd using the glucuronidation conditions).

L1210 cells = assay: Effect of PRG overexpression on growth and dNTP pools of L1210 cells; assay type: cell-based, murine
Procedure: FIG. 9 provides graphs of data that illustrate how the overexpression of sr39tk affects cell growth and intracellular dNTP pools. L1210 cells were engineered to express: TK2-N93D (▪), TK2 (▴), HSV1-sr39tk (▾), and control vector eYFP (♦). Various graphs show the growth of the L1210 cells in (A) regular media and (B) regular media supplemented with 10 μM thymidine (dT). Other graphs show total cellular dNTP pools (measured by LC-MS) in cells grown in (C) regular media and (D) regular media supplemented with 10 μM dT; (*=below limit of detection).
L1210 cells transduced to overexpress the listed genes were grown in RPMI media (+/−10 μM dT) for 48 hours. The cells were then harvested and pyrimidine nucleotide pools were obtained via […].
To overcome the negative feedback limitation of TK2, a point mutation-N93D, was engineered. The work done by Piskur and colleagues on the structurally related Drosophila melanogaster deoxyribonucleoside kinase (see, e.g. Welin, M., et al. FEBS J 272:3733-3742, 2005) led one to predict that the N93D mutation would reduce the feedback inhibition of TK2 by dTTP. […] We then determined whether the enhanced resistance to feedback inhibition translates into improved TK2-N93D catalytic activity towards the L-[^18F]FMAU substrate. […]

decrease of kcat compared with TK2 (TK2-N93D/L109F; 37° C., 1 mM ATP): 49%
decrease of kcat relative to WT TK2 (TK2-N93D): 77%
decrease of kcat/Km compared with WT TK2 (TK2-N93D): 60%
change of Km by the L109F mutation (TK2-L109F): decrease in the Km
Molecule: Cc1cn([C@H]2C[C@H](O)[C@@H](CO)O2)c(=O)[nH]c1=O [D-dT, D-thymidine]

increase of kcat compared with TK2 (TK2-N93D/L109F; 37° C., 1 mM ATP): 54%
decrease of kcat relative to WT TK2 (TK2-N93D): 48%
change of Km by the L109F mutation (TK2-L109F): decrease in the Km
Molecule: Cc1cn([C@@H]2C[C@@H](O)[C@H](CO)O2)c(=O)[nH]c1=O [L-dT]

kobs as percentage of that of TK2 (TK2-N93D/L109F; 200 μM substrate): 62%
Molecule: Nc1ccn([C@H]2C[C@H](O)[C@@H](CO)O2)c(=O)n1 [dC, deoxycytidine]

The next lines start with the molecule.

Molecule: CCc1cn([C@H]2O[C@@H](CO)[C@H](O)[C@H]2F)c(=O)[nH]c1=O [L-[^18F]FEAU]
overall background (biodistribution) ([1]; candidate 18F nucleoside analog probes in mice, FIG. 7B): lowest overall background
test of reporter system with probe (Baf-3 cells): successfully tested

Molecule: O=c1[nH]c(=O)n([C@H]2C[C@H]([18F])[C@@H](CO)O2)cc1Br [^18F-FBU, 3′-[^18F]fluoro-2′,3′-dideoxy-5-bromouridine]
biodistribution in mice [1]: excellent biodistribution
phosphorylation by endogenous mammalian thymidine kinases (TK1): cannot be phosphorylated
microsomal stability over time [2]: decrease stability over time

Molecule: O=c1[nH]c(=O)n([C@H]2C[C@H]([18F])[C@@H](CO)O2)cc1Cl [^18F-FCU, 3′-[^18F]fluoro-2′,3′-dideoxy-5-chlorouridine]
biodistribution in mice [1]: excellent biodistribution
phosphorylation by endogenous mammalian thymidine kinases (TK1): cannot be phosphorylated
microsomal stability over time [2]: only FBU showed decrease stability over time

Molecule: O=c1[nH]c(=O)n([C@H]2C[C@H]([18F])[C@@H](CO)O2)cc1F [^18F-FFU, 3′-[^18F]fluoro-2′,3′-dideoxy-5-fluorouridine]
biodistribution in mice [1]: excellent biodistribution
phosphorylation by endogenous mammalian thymidine kinases (TK1): cannot be phosphorylated

Molecule: O=c1ccn([C@H]2C[C@H]([18F])[C@@H](CO)O2)c(=O)[nH]1 [^18F-FddUrd, 3′-[^18F]fluoro-2′,3′-dideoxy-uridine]
biodistribution in mice [1]: excellent biodistribution
phosphorylation by endogenous mammalian thymidine kinases (TK1): cannot be phosphorylated
microsomal stability over time [2]: only FBU showed decrease stability over time

B1: TK2-N93D: truncated human thymidine kinase 2 with N93D point mutation, PET reporter gene product (SEQ ID NO: 3) (protein, listed as Homo sapiens)
chain: MSVICVEGNIASGKTTCLEFFSNATDVEVLTEPVSKWRNVRGHDPLGLMYHDASRWGLTLQTYVQLTMLDRHTRPQVSSVRLMERSIHSARYIFVENLYRSGKMPEVDYVVLSEWFDWILRNMDVSVDLIVYLRTNPETCYQRLKKRCREEEKVIPLEYLEAIHHLHEEWLIKGSLFPMAAPVLVIEADHHMERMLELFEQNRDRILTPENRKHCP
growth rate of transduced cells (L1210 cells): did not affect
intracellular dNTP pools (L1210 cells): did not affect
